# Reference: patent US20110207729A1, “BICYCLIC ACYLGUANIDINE DERIVATIVE” (ASTELLAS PHARMA INC., priority 2007, published 2011)
# Molecular target: T1, human 5-HT5A receptor (Homo sapiens, UniProt P47898)
# T1 construct: expressed in transfected cells; membrane preparation
# Test: Test on a human 5-HT5A receptor binding inhibition ([3H]5-CT)
# Conditions: membrane from HEK293 cells expressing human 5-HT5A receptor; Ki calculated from IC50 and Kd 4.95 nM
# Protocol: Acquisition of HEK293 cells for forced expressions of a human 5-HT5A receptor
# The ORF (open reading frame; protein coding region) of a human 5-HT5A receptor (Genbank AF498985) was cloned from a human hippocampus cDNA library, and then inserted into a pCR2.1 vector (Invitrogen), and Escherichia coli containing the plasmid was cultured in a large amount. Next, the full-length cDNA sequence of the human 5-HT5A receptor was analyzed, and recombined into a pcDNA3.1 vector (Invitrogen) as an expression vector and cultured in a large amount. HEK293 established cells (ATCC) derived from the human fetal kidney were seeded, the expression plasmid (1 μg) obtained above were added thereto with LIPOFECTAMINE 2000 (Invitrogen; 2 μl), the gene was transfected into HEK293 cells, and the expression cells were screened with a drug-resistant marker, Geneticin (G418 sulfate 500 μg/ml; Kanto Chemical Co., Inc.). Thus prepared recombinant cells which express the gene were cultured in a medium containing D-MEM (Dulbecco's modified eagle medium, Sigma), 10% FCS (Fetal calf serum: fetal bovine serum), 1% Pc./Sm (Penicillin/Streptomycin, Invitrogen), and 500 μg/ml G418 for 3 days. These experimental operations follow an manual for gene operation experiment and an instruction appended in a reagent, and the like, such as a known method (Sambrook, J. et al, Molecular Cloning—A Laboratory Manual”, Cold Spring Harabor laboratory, NY, 1989).
# (1) Preparation of a Membrane from HEK293 Cells for Forced Expressions of a Human 5-HT5A Receptor
# HEK293 cells for forced expressions of a human 5-HT5A receptor were cultured in a F500 plate, and scraped with a scraper. After centrifugation, a precipitate was collected, and an incubation buffer (50 mM Tris (HCl) (pH 7.4), 10 mM MgSO4, and 0.5 mM EDTA (ethylenediamine tetraacetic acid)) were added thereto. After homogenization, it was further centrifuged, and the precipitate was added with the incubation buffer, followed by thoroughly suspending. This operation was repeated, and a protein concentration was measured, thereby completing the preparation of a membrane.
# (2) Test on a Human 5-HT5A Receptor Binding Inhibition
# A solution of a compound to be tested and 100 μM 5-CT (5-carboxamidetriptamine) in DMSO was added to a 96-well plate at 2 μl/well, and suspended in an incubation buffer, and a membrane from HEK293 cells for forced expressions of a human 5-HT5A receptor prepared at 200 μg/ml was added at 100 μl/well. After incubation at room temperature for 15 minutes, a [^3H]5-CT solution (2 nM [^3H]5-CT, incubation buffer) was added thereto at 100 μl/well.
# Separately, 100 μl of the solution was distributed into a liquid scintillation vial, and 2 ml of Aquasol II (registered trademark) was added thereto, followed by stirring. Then, a radioactivity was measured by a liquid scintillation counter. It was incubated at 37° C. for 60 minutes. The reaction mixture was sucked into 96-well GF/C filter plate that had been pre-treated with 0.2% polyethyleneimine, and washed six times with an ice-cooled, 50 mM Tris (pH 7.5) buffer. The GF/C filter plate was dried.
# Microscint TMPS (registered trademark) was added thereto at 40 μl/well. A radioactivity remaining on the GF/C filter plate was measured by a top counter.
# The [^3H]5-CT binding inhibiting activity by the compound to be tested in each experiment was determined as an IC50 value with a radioactivity upon addition of DMSO alone being 0% inhibition, and a radioactivity upon addition of 1 μM 5-CT being 100% inhibition. Separately, a Ki value was calculated from the Kd value of the [^3H]5-CT determined from Scatchard analysis, by the following equation.
# Ki=IC50(1+Concentration of ligands added/Kd(4.95 nM))
# T1 sequence (P47898 whole entry): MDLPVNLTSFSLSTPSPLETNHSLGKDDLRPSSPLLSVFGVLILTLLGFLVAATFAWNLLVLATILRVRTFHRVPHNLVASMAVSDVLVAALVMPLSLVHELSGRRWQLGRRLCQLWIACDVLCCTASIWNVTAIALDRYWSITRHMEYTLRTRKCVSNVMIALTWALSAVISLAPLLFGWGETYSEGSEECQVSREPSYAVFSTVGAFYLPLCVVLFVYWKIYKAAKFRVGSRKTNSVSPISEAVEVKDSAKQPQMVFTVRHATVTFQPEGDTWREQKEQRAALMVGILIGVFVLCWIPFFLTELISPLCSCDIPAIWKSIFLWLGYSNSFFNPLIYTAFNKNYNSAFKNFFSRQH
row,SMILES,Ki [nM]
1,NC(N)=NC(=O)c1ccc2c(c1)C(c1ccccc1Oc1ccccc1)=CCC2 [Example 2-33],30 to 300
2,NC(N)=NC(=O)c1ccc2c(c1)C(c1ccccc1CO)=CCC2 [Example 2-35],30 to 300
3,CN(C)Cc1ccccc1C1=CCCc2ccc(C(=O)N=C(N)N)cc21 [Example 2-36],30 to 300
4,CCOc1ccccc1C1=CCCc2ccc(C(=O)N=C(N)N)cc21 [Example 2-44],30 to 300
5,CC(C)Oc1ccccc1C1=CCCc2ccc(C(=O)N=C(N)N)cc21 [Example 2-45],30 to 300
6,N#Cc1cc(C2=CCCc3ccc(C(=O)N=C(N)N)cc32)ccc1F [Example 2-62],30 to 300
7,COc1cccc(C#N)c1C1=CCCc2ccc(C(=O)N=C(N)N)cc21 [Example 2-66],30 to 300
8,COc1ccc(C2=CCCc3ccc(C(=O)N=C(N)N)cc32)c(C#N)c1 [Example 2-68],30 to 300
9,Cn1cc(C2=CCCc3ccc(C(=O)N=C(N)N)cc32)cn1 [Example 2-77],30 to 300
10,COc1ccc(C2=CCCc3ccc(C(=O)N=C(N)N)cc32)cc1C#N [Example 2-78],3 to 30
11,Cc1ccc(C2=CCCc3ccc(C(=O)N=C(N)N)cc32)c(C#N)c1 [Example 2-79],3 to 30
12,CC1(C)CC=C(c2ccccc2)c2cc(C(=O)N=C(N)N)ccc21 [Example 2-80],30 to 300
13,Cn1nccc1C1=CCCc2ccc(C(=O)N=C(N)N)cc21 [Example 2-81],3 to 30
14,CSc1ccccc1C1=CCCc2ccc(C(=O)N=C(N)N)cc21 [Example 2-82],3 to 30
15,NC(N)=NC(=O)c1ccc2c(c1)C(c1cnccn1)=CCC2 [Example 2-86],30 to 300
16,CCOc1ccc(C2=CCCc3ccc(C(=O)N=C(N)N)cc32)cc1 [Example 2-87],3 to 30
17,CC(C)Oc1ccc(C2=CCCc3ccc(C(=O)N=C(N)N)cc32)cc1 [Example 2-88],30 to 300

row,SMILES,Ki [nM]
1,NC(N)=NC(=O)c1ccc2c(c1)C(c1ccccn1)=CCC2 [Example 2-89],30 to 300
2,NC(N)=NC(=O)c1ccc2c(c1)C(c1ccc(F)cc1F)=C(F)CC2 [Example 2-90],3 to 30
3,NC(N)=NC(=O)c1ccc2c(c1)C(c1nccs1)=CCC2 [Example 2-93],30 to 300
4,COc1cc(F)c(C2=CCCc3ccc(C(=O)N=C(N)N)cc32)c(F)c1 [Example 2-94],3 to 30
5,CS(=O)(=O)c1ccc(C2=CCCc3ccc(C(=O)N=C(N)N)cc32)cc1 [Example 2-97],30 to 300
6,NC(N)=NC(=O)c1ccc2c(c1)C(c1ccccc1OC(F)(F)F)=CCC2 [Example 2-98],30 to 300
7,COc1cc(F)c(F)cc1C1=CCCc2ccc(C(=O)N=C(N)N)cc21 [Example 2-100],3 to 30
8,N#CCc1ccccc1C1=CCCc2ccc(C(=O)N=C(N)N)cc21 [Example 2-114],30 to 300
9,CCC1=C(c2ccccc2)c2cc(C(=O)N=C(N)N)ccc2CC1 [Example 2-115],3 to 30
10,CCCC1=C(c2ccccc2)c2cc(C(=O)N=C(N)N)ccc2CC1 [Example 2-116],30 to 300
11,NC(N)=NC(=O)c1ccc2c(c1)C(c1ccc(C(F)(F)F)cc1C(F)(F)F)=CCC2 [Example 2-117],30 to 300
12,NC(N)=NC(=O)c1ccc2c(c1)C(c1cncc(F)c1)=CCC2 [Example 2-123],30 to 300
13,NC(N)=NC(=O)c1ccc2c(c1)C(c1cc(Cl)c(F)cc1F)=CCC2 [Example 2-136],3 to 30
14,COc1ncccc1C1=CCCc2ccc(C(=O)N=C(N)N)cc21 [Example 2-140],3 to 30
15,CC1=C(c2ccc(C)nc2)c2cc(C(=O)N=C(N)N)ccc2CC1 [Example 2-141],3 to 30
16,NC(N)=NC(=O)c1ccc2c(c1)C(c1ccc(C(F)(F)F)nc1)=CCC2 [Example 2-142],30 to 300

# The next lines start with the values.
row,Ki [nM],SMILES
1,3 to 30,NC(N)=NC(=O)c1ccc2c(c1)C(C1CCOCC1)=CCC2 [Example 2-31]
2,3 to 30,CN(C)Cc1ccc(C2=CCCc3ccc(C(=O)N=C(N)N)cc32)cc1 [Example 2-32]
3,3 to 30,NC(N)=NC(=O)c1ccc2c(c1)C(c1cccc(CO)c1)=CCC2 [Example 2-34]
4,3 to 30,CN(C)Cc1cccc(C2=CCCc3ccc(C(=O)N=C(N)N)cc32)c1 [Example 2-38]
5,0.3 to 3,NC(N)=NC(=O)c1ccc2c(c1)C(c1ccccc1)=C(F)CC2 [Example 2-43]
6,3 to 30,NC(N)=NC(=O)c1ccc2c(c1)C(c1ccccc1[N+](=O)[O-])=CCC2 [Example 2-46]
7,3 to 30,NC(N)=NC(=O)c1ccc2c(c1)C(c1cccc([N+](=O)[O-])c1)=CCC2 [Example 2-47]
8,0.3 to 3,NC(N)=NC(=O)c1ccc2c(c1)C(c1ccc([N+](=O)[O-])cc1)=CCC2 [Example 2-48]
9,3 to 30,NC(N)=NC(=O)c1ccc2c(c1)C(c1ccncc1)=CCC2 [Example 2-49]
10,3 to 30,NC(N)=NC(=O)c1ccc2c(c1)C(c1ccccc1O)=CCC2 [Example 2-50]
11,0.3 to 3,NC(N)=NC(=O)c1ccc2c(c1)C(c1cccc(O)c1)=CCC2 [Example 2-51]
12,0.3 to 3,NC(N)=NC(=O)c1ccc2c(c1)C(c1ccc(O)cc1)=CCC2 [Example 2-52]
13,3 to 30,NC(N)=NC(=O)c1ccc2c(c1)C(c1ccc(F)nc1)=CCC2 [Example 2-53]
14,0.3 to 3,COc1cc(F)ccc1C1=CCCc2ccc(C(=O)N=C(N)N)cc21 [Example 2-54]
15,0.3 to 3,COc1cc(C#N)ccc1C1=CCCc2ccc(C(=O)N=C(N)N)cc21 [Example 2-55]
16,2.3,CC1=C(c2ccccc2)c2cc(C(=O)N=C(N)N)ccc2CC1 [Example 2-56]
17,3 to 30,N#Cc1cc(F)ccc1C1=CCCc2ccc(C(=O)N=C(N)N)cc21 [Example 2-57]
18,3 to 30,COc1ccccc1C1=C(C)CCc2ccc(C(=O)N=C(N)N)cc21 [Example 2-58]

row,Ki [nM],SMILES
1,0.3 to 3,CC1=C(c2ccc(C#N)cc2)c2cc(C(=O)N=C(N)N)ccc2CC1 [Example 2-59]
2,0.3 to 3,NC(N)=NC(=O)c1ccc2c(c1)C(c1c(F)cc(F)cc1F)=CCC2 [Example 2-60]
3,3 to 30,COc1ccc(C#N)cc1C1=CCCc2ccc(C(=O)N=C(N)N)cc21 [Example 2-61]
4,0.3 to 3,NC(N)=NC(=O)c1ccc2c(c1)C(c1ccc(Cl)cc1F)=CCC2 [Example 2-67]
5,3 to 30,Cc1cc(C)c(C2=CCCc3ccc(C(=O)N=C(N)N)cc32)c(C)c1 [Example 2-69]
6,0.3 to 3,NC(N)=NC(=O)c1ccc2c(c1)C(c1ccc(F)cc1Cl)=CCC2 [Example 2-70]
7,3 to 30,COc1cc(F)ccc1C1=C(C)CCc2ccc(C(=O)N=C(N)N)cc21 [Example 2-71]
8,0.3 to 3,COc1ccc(C2=CCCc3ccc(C(=O)N=C(N)N)cc32)c(F)c1 [Example 2-85]
9,0.3 to 3,N#Cc1ccc(C2=C(F)CCc3ccc(C(=O)N=C(N)N)cc32)cc1 [Example 2-91]
10,0.3 to 3,NC(N)=NC(=O)c1ccc2c(c1)C(c1ccc(F)c(F)c1F)=CCC2 [Example 2-95]
11,0.3 to 3,NC(N)=NC(=O)c1ccc2c(c1)C(c1ccc(F)cc1)=C(F)CC2 [Example 2-96]
12,0.3 to 3,NC(N)=NC(=O)c1ccc2c(c1)C(c1c(F)ccc(F)c1F)=CCC2 [Example 2-99]
13,0.3 to 3,NC(N)=NC(=O)c1ccc2c(c1)C(c1ccc(F)cc1F)=CCC2 [Example 2-101]
14,0.3 to 3,NC(N)=NC(=O)c1ccc2c(c1)C(c1c(F)cccc1F)=CCC2 [Example 2-105]
15,0.3 to 3,NC(N)=NC(=O)c1ccc2c(c1)C(c1cccc(Cl)c1F)=CCC2 [Example 2-110]
16,0.3 to 3,Cc1ccc(C2=CCCc3ccc(C(=O)N=C(N)N)cc32)c(Cl)c1 [Example 2-134]
17,0.3 to 3,Cc1cc(Cl)ccc1C1=CCCc2ccc(C(=O)N=C(N)N)cc21 [Example 2-135]
